# According to US20190151341A1, “APPLICATION OF TENVERMECTIN FOR PREVENTING AND TREATING PARASITE INFECTION” (ZHEJIANG HISUN PHARMACEUTICAL CO., LTD., priority 2016, published 2019):
# How the values were obtained:
# [1] = tested on: swine Haematopinus; assay: Killing effect on swine Haematopinus on the body surface; assay type: in vivo; conditions: pigs, 1% injection 0.2 mg/kg bw s.c., until the 7th day and in the following 3 weeks
# Description: (§1) Test agents: 1% ivermectin injection, 1% tenvermectin A injection, and 1% tenvermectin B injection as obtained in Example 1.
# (§2) Test animals and grouping: pigs cultured in the same farm were selected, and 40 pigs naturally infected with nematodes in the digestive tract were selected for testing through fecal examination. The average weight of the test pigs was 30-50 kg. Forty pigs were randomly divided into 4 groups, 10 for each group. The first group was the ivermectin control group, the second group was the tenvermectin A group, and the third group was the tenvermectin B group. All the medicated groups were injected subcutaneously in the neck according to 0.2 mg/kg·bw. The forth group was a blank group and was not administered.
# (§3) 1) The feces of the pigs in each group were collected and examined one by one a day before administration, and worm eggs were counted by the McMaster's method. The number of eggs per gram of feces (EPG) was counted and the condition of Haematopinus on the body surface was observed.
# (§4) 2) 1, 2, 3 and 4 weeks after administration, the feces of the pigs in each group were examined by the McMaster's method, and the EPG was counted and the changes of Haematopinus on the body surface were observed.
# 4) The killing effects of swine Haematopinus of the agents were assessed according to the survival of swine Haematopinus on the 7th day after administration.
# [2] = tested on: digestive tract nematodes; assay: Repelling nematode in digestive track of sheep (fecal egg count); assay type: in vivo; conditions: for Number of sheep negatively conversed: sheep (20 per group); for Number of sheep negatively conversed / Egg reduction rate (%) / Negative conversion rate (%): 1% injection 0.2 mg/kg bw s.c.; for Number of sheep negatively conversed / Egg reduction rate (%) / Negative conversion rate (%) / EPG after administration: 9th day after administration; for Egg reduction rate (%) / Negative conversion rate (%) / EPG after administration / EPG before administration: sheep; for EPG after administration / EPG before administration: eggs per gram of feces; for EPG after administration: 0.2 mg/kg bw s.c.; for EPG before administration: baseline a day before administration
# Description: as §1
# Test animals and grouping: sheep grazed under the same condition were selected, and 80 sheep of 0.8-2.0 years old naturally infected with digestive tract nematodes were selected through fecal examination. The average weight of the test sheep was 30 kg. The 80 sheep were randomly divided into 4 groups, 20 heads for each group. The first group was the ivermectin control group, the second group was the tenvermectin A group, and the third group was the tenvermectin B group. All the medicated groups were injected subcutaneously in the neck according to 0.2 mg/kg·bw. The fourth group was a blank group and was not medicated.
# 1) The feces of the sheep in each group were collected and examined one by one a day before administration, and the worm eggs were counted by the McMaster's method, and the number of eggs per gram of feces (EPG) was counted.
# 2) On the 9th day after administration, the sheep of each group were subjected to a fecal examination by McMaster's method, and EPG was counted.
# 3) The egg negative conversion rates and egg reduction rates were calculated according to a conventional method to assess the efficacy.
# [3] = tested on: allogynogenetic crucian carp; assay: Toxicity to allogynogenetic crucian carp, semi-static method, 96 hours; assay type: in vivo; conditions: allogynogenetic crucian carp
# Description: Test fish and water: allogynogenetic crucian carp was purchased from Taowang Farm in Jiaojiang District, Taizhou City, with a body length of (9.60±0.52) cm and a body weight of (28.22±3.44) g. The healthy and vigorous fish with the same size were selected and temporarily raised in an indoor aquarium. They were domesticated for 7 days indoors before the test. The natural mortality rate was zero.
# 99.4% Tenvermectin A (the mass content of tenvermectin B was 0.02%) (Zhejiang Hisun Pharmaceutical Co., Ltd.);
# Tenvermectin (the mass ratio of tenvermectin A/tenvermectin B was 95/5) (Zhejiang Hisun Pharmaceutical Co., Ltd.);
# Tenvermectin (the mass ratio of tenvermectin A/tenvermectin B was 90/10) (Zhejiang Hisun Pharmaceutical Co., Ltd.);
# Tenvermectin (the mass ratio of tenvermectin A/tenvermectin B was 85/15) (Zhejiang Hisun Pharmaceutical Co., Ltd.);
# 99.1% Tenvermectin B (the mass content of tenvermectin A was 0.51%) (Zhejiang Hisun Pharmaceutical Co., Ltd.);
# 92% Avermectin (Zhejiang Qianjiang Biochemical Co., Ltd.);
# 96% Ivermectin (Zhejiang Hisun Pharmaceutical Co., Ltd.);
# 90% Methylamino avermectin benzoate (Emamectin benzoate) (Zhejiang Shenghua Biok Biotechnology Co., Ltd.).
# Method: semi-static method. […]
# [4] = tested on: swine nematode (nematodes in the digestive tract); assay: Repelling swine nematode in naturally infected pigs (fecal egg count, McMaster's method); assay type: in vivo; conditions: 1% injection 0.2 mg/kg bw s.c.
# Description: as §1, §2, §3, §4
# 3) The negative conversion rates and egg reduction rates of the test pigs were calculated by a conventional method to assess the efficacy of repelling swine nematode.
# [5] = tested on: zebrafish; assay: Toxicity to zebrafish, semi-static method, 96 hours
# Procedure: Test agents: avermectin, milbemycin, ivermectin, tenvermectin A and tenvermectin B were all from Zhejiang Hisun Pharmaceutical Co., Ltd. The samples were formulated into 50 mg/ml mother liquors with DMF.
# Test fish and water: zebrafish (Brachydanio rerio) was purchased from Zhejiang Academy of Agricultural Sciences, with the same size, average body length of 2-3 cm and average body weight of 0.3 g. The zebrafish was domesticated for 7 days indoors before the test. […] Feeding was stopped 1 day before the test and the fish were not fed during the test. The test water was tap water with residual chlorine removed by exposure to the sun for more than 24 hours, and the pH thereof was 6.8.
# Test methods: semi-static method. Three level differences were provided for each sample: 0.5 ppm, 1.0 ppm and 1.5 ppm, and three parallel groups were provided for each level difference, 10 zebrafish were raised for each group, and blank controls (one group without agents and one group with only solvent) were provided. The corresponding volume of mother liquor was taken according to the concentration as required for each sample, and the volume of each sample was adjusted to 150 μl with DMF, and then each sample was added to the test group (containing 1.6 L of water). The room temperature was controlled at 22±2° C. for 96 hours, and the water was changed every 24 hours and the samples were re-added. The fish mortality rate was recorded for the first 8 hours and at 24, 48, 72 and 96 hours, and the dead fish were removed in time.
smiles,measurement,setting,value
"COC1CC(OC2C(C)OC(OC3C(C)=CCC4CC(CC5(CCC(C)C(C)O5)O4)OC(=O)C4C=C(C)C(O)C5OCC(=CC=CC3C)C45O)CC2OC)OC(C)C1O (stereo not drawn) [Tenvermectin A, tenvermectin A]",active Haematopinus observed on the body surface,[1],no active Haematopinus was found
same,Number of sheep negatively conversed,[2],20
same,Egg reduction rate (%),[2],100%
same,Negative conversion rate (%),[2],100%
same,EPG after administration,[2],0
same,EPG before administration,[2],11600
same,Survival condition (survival rates/%),"[3]; 0.5 ppm, 8 h",100%
same,Survival condition (survival rates/%),"[3]; 0.5 ppm, 24 h",100%
same,Survival condition (survival rates/%),"[3]; 0.5 ppm, 48 h",100%
same,Survival condition (survival rates/%),"[3]; 0.5 ppm, 72 h",100%
same,Survival condition (survival rates/%),"[3]; 0.5 ppm, 96 h",100%
same,Survival condition (survival rates/%),"[3]; 1.0 ppm, 8 h",100%
same,Survival condition (survival rates/%),"[3]; 1.0 ppm, 24 h",100%
same,Survival condition (survival rates/%),"[3]; 1.0 ppm, 48 h",100%
same,Survival condition (survival rates/%),"[3]; 1.0 ppm, 72 h",100%
same,Survival condition (survival rates/%),"[3]; 1.0 ppm, 96 h",100%
same,Survival condition (survival rates/%),"[3]; 2.0 ppm, 8 h",100%
same,Survival condition (survival rates/%),"[3]; 2.0 ppm, 24 h",100%
same,Survival condition (survival rates/%),"[3]; 2.0 ppm, 48 h",100%
same,Survival condition (survival rates/%),"[3]; 2.0 ppm, 72 h",100%
same,Survival condition (survival rates/%),"[3]; 2.0 ppm, 96 h",100%
same,toxicity grade according to LC50,[3]; 96-hour LC50,low toxic
same,Egg reduction rate (%),[4]; 1st week after administration,79.6%
same,Negative conversion rate (%),[4]; 1st week after administration,70%
same,Egg reduction rate (%),[4]; 2nd week after administration,89.5%
same,Negative conversion rate (%),[4]; 2nd week after administration,80%
same,Egg reduction rate (%),[4]; 3rd week after administration,98.6%
same,Negative conversion rate (%),[4]; 3rd week after administration,90%
same,Egg reduction rate (%),[4]; 4th week after administration,78.8%
same,Negative conversion rate (%),[4]; 4th week after administration,70%
same,Survival condition (survival rates/%),"[5]; 0.5 ppm, 8 h",100%
same,Survival condition (survival rates/%),"[5]; 0.5 ppm, 24 h",100%
same,Survival condition (survival rates/%),"[5]; 0.5 ppm, 48 h",100%
same,Survival condition (survival rates/%),"[5]; 0.5 ppm, 72 h",100%
same,Survival condition (survival rates/%),"[5]; 0.5 ppm, 96 h",100%
same,Survival condition (survival rates/%),"[5]; 1.0 ppm, 8 h",100%
same,Survival condition (survival rates/%),"[5]; 1.0 ppm, 24 h",100%
same,Survival condition (survival rates/%),"[5]; 1.0 ppm, 48 h",100%
same,Survival condition (survival rates/%),"[5]; 1.0 ppm, 72 h",100%
same,Survival condition (survival rates/%),"[5]; 1.0 ppm, 96 h",100%
same,Survival condition (survival rates/%),"[5]; 1.0 ppm, 96 h, listed as tenvermectin A",greater than 50%
same,Survival condition (survival rates/%),"[5]; 1.5 ppm, 8 h",100%
same,Survival condition (survival rates/%),"[5]; 1.5 ppm, 24 h",100%
same,Survival condition (survival rates/%),"[5]; 1.5 ppm, 48 h",100%
same,Survival condition (survival rates/%),"[5]; 1.5 ppm, 72 h",100%
same,Survival condition (survival rates/%),"[5]; 1.5 ppm, 96 h",100%
same,96-hour LC50 on zebrafish,"[5]; 96 hours, semi-static",> 1 ppm
"CC[C@H]1O[C@]2(CC[C@@H]1C)C[C@@H]1C[C@@H](C/C=C(\C)[C@@H](O[C@H]3C[C@H](OC)[C@@H](O[C@H]4C[C@H](OC)[C@@H](O)[C@H](C)O4)[C@H](C)O3)[C@@H](C)/C=C/C=C3\CO[C@@H]4[C@H](O)C(C)=C[C@@H](C(=O)O1)[C@]34O)O2 [Tenvermectin B, tenvermectin B]",active Haematopinus observed on the body surface,[1],no active Haematopinus was found
same,Number of sheep negatively conversed,[2],20
same,Egg reduction rate (%),[2],100%
same,Negative conversion rate (%),[2],100%
same,EPG after administration,[2],0
same,EPG before administration,[2],12200
same,Survival condition (survival rates/%),"[3]; 0.5 ppm, 8 h",100%
same,Survival condition (survival rates/%),"[3]; 0.5 ppm, 24 h",80%
same,Survival condition (survival rates/%),"[3]; 0.5 ppm, 48 h",33%
same,Survival condition (survival rates/%),"[3]; 0.5 ppm, 72 h",0%
same,Survival condition (survival rates/%),"[3]; 1.0 ppm, 8 h",75%
same,Survival condition (survival rates/%),"[3]; 1.0 ppm, 24 h",3%
same,Survival condition (survival rates/%),"[3]; 2.0 ppm, 8 h",20%
same,Survival condition (survival rates/%),"[3]; 2.0 ppm, 24 h",0%
same,Egg reduction rate (%),[4]; 1st week after administration,85.3%
same,Negative conversion rate (%),[4]; 1st week after administration,80%
same,Egg reduction rate (%),[4]; 2nd week after administration,100%
same,Negative conversion rate (%),[4]; 2nd week after administration,100%
same,Egg reduction rate (%),[4]; 3rd week after administration,100%
same,Negative conversion rate (%),[4]; 3rd week after administration,100%
same,Egg reduction rate (%),[4]; 4th week after administration,95.8%
same,Negative conversion rate (%),[4]; 4th week after administration,90%
same,Survival condition (survival rates/%),"[5]; 0.5 ppm, 8 h",100%
same,Survival condition (survival rates/%),"[5]; 0.5 ppm, 24 h",70%
same,Survival condition (survival rates/%),"[5]; 0.5 ppm, 48 h",50%
same,Survival condition (survival rates/%),"[5]; 0.5 ppm, 72 h",0%
same,Survival condition (survival rates/%),"[5]; 1.0 ppm, 8 h",53%
same,Survival condition (survival rates/%),"[5]; 1.0 ppm, 24 h",0%
same,Survival condition (survival rates/%),"[5]; 1.5 ppm, 8 h",10%
same,Survival condition (survival rates/%),"[5]; 1.5 ppm, 24 h",0%
same,"toxicity to zebrafish, in words",[5]; in vivo,did not reach the level of middle toxic
